Test results published in ChEMBL document CHEMBL2203077, “Discovery of a novel series of 4-quinolone JNK inhibitors” (Bioorg Med Chem Lett, 2012).
≈ marks a conversion by molar mass, not a printed value. One block for each compound: values may come before it.

Columns and labels:
[1] = Clearance in dog at 3 mg/kg, iv; type: ADME, organism-based, Canis lupus familiaris; parameters: dose 3 mg/kg, route intravenous; conditions: in vivo
[2] = target: Myosin light chain kinase family member 4 (Homo sapiens, UniProt Q86YV6); test: Binding affinity to T7-phage-tagged SgK085 by PCR analysis
Rattus norvegicus [3] = test: Antiasthatic activity in ovalbumin-sensitized Brown Norway rat assessed as inhibition of ovalbumin-induced total white blood cells infiltration into BAL at 10 mg/kg, sc administered 24 hrs prior to ovalbumin-challenge measured after 4 hrs relative to vehicle-treated control; type: functional; conditions: route subcutaneous
[4] = target: Mitogen-activated protein kinase 13 (Homo sapiens, UniProt O15264); test: Binding affinity to T7-phage-tagged P38delta by PCR analysis
[5] = Clearance in rat at 3 mg/kg, iv; type: ADME, organism-based; parameters: dose 3 mg/kg, route intravenous; conditions: in vivo
[6] = target: Mitogen-activated protein kinase 7 (Homo sapiens, UniProt Q13164); test: Binding affinity to T7-phage-tagged MAPK7 by PCR analysis
[7] = Oral bioavailability in rat at 3 mg/kg administered using labrasol as vehicle; type: ADME, organism-based; conditions: in vivo
[8] = target: Mitogen-activated protein kinase 12 (Homo sapiens, UniProt P53778); test: Binding affinity to T7-phage-tagged P38gamma by PCR analysis
Sequence of Mitogen-activated protein kinase 12 (P53778 whole entry): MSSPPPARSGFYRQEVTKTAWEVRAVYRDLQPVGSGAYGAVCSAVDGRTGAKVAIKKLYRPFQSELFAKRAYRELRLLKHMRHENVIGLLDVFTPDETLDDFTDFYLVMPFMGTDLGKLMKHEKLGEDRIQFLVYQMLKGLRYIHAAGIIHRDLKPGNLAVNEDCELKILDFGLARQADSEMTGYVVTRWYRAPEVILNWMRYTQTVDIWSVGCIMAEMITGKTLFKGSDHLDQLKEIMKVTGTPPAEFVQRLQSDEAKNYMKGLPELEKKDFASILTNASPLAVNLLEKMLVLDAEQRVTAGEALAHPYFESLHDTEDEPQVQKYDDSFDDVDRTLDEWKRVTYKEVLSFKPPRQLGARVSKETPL

[9] = target: Interleukin-1 receptor-associated kinase 1 (Homo sapiens, UniProt P51617); test: Binding affinity to T7-phage-tagged IRAK1 by PCR analysis
[10] = target: Death-associated protein kinase 2 (Homo sapiens, UniProt Q9UIK4); test: Binding affinity to T7-phage-tagged DAPK2 by PCR analysis
[11] = Oral bioavailability in rat at 3 mg/kg administered using hydroxypropyl methylcellulose as vehicle; type: ADME, organism-based; conditions: in vivo
[12] = target: T1, Mitogen-activated protein kinase 8 (Homo sapiens, UniProt P45983); test: Binding affinity to T7-phage-tagged JNK1 by PCR analysis
T1 sequence (P45983 whole entry): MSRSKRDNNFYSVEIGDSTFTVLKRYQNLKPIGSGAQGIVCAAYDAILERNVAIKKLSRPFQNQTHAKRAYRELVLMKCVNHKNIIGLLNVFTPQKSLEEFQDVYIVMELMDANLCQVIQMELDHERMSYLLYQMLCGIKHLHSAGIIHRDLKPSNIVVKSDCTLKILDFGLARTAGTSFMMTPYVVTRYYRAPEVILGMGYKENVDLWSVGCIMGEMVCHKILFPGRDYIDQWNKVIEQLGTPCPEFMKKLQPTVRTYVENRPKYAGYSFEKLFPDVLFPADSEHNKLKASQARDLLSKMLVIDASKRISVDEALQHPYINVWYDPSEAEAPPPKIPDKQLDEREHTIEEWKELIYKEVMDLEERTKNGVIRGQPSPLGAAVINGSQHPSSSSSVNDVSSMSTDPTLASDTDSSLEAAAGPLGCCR

[13] = target: T2, Mitogen-activated protein kinase 9 (Homo sapiens, UniProt P45984); test: Binding affinity to T7-phage-tagged JNK2 by PCR analysis
T2 sequence (P45984 whole entry): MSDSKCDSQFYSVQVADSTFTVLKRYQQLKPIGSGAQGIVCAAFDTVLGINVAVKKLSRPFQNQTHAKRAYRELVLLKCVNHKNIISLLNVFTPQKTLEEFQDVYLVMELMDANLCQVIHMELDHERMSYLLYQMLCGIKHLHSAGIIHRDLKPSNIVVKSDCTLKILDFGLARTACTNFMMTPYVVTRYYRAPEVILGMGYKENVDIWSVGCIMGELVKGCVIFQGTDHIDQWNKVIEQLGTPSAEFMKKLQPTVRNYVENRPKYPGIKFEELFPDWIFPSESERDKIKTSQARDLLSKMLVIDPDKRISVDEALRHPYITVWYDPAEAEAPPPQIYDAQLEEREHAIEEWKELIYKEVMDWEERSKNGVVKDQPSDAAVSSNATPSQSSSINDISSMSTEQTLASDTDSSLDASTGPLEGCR

[14] = target: Serine/threonine-protein kinase DCLK3 (Homo sapiens, UniProt Q9C098); test: Binding affinity to T7-phage-tagged DCAMKL3 by PCR analysis
Sequence of Serine/threonine-protein kinase DCLK3 (Q9C098 whole entry): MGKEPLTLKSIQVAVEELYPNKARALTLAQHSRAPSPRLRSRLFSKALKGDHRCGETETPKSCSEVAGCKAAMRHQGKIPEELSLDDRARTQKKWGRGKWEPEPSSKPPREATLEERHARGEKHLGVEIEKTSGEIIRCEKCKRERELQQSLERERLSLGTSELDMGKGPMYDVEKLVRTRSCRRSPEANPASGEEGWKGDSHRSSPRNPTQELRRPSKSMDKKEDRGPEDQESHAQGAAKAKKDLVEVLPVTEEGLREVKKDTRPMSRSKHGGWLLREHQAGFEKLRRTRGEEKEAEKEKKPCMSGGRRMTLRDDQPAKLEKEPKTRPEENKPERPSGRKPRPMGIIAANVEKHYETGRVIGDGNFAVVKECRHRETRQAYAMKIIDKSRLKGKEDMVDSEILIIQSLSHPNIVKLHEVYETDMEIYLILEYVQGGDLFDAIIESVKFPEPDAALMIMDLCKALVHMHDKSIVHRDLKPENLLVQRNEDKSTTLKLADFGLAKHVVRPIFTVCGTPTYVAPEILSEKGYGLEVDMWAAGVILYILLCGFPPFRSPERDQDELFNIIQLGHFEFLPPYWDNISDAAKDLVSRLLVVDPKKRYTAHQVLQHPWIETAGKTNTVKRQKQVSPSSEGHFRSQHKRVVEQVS

[15] = Half life in dog at 3 mg/kg, iv; type: ADME, organism-based, Canis lupus familiaris; parameters: dose 3 mg/kg, route intravenous; conditions: in vivo
[16] = Solubility of the compound in phosphate buffer at pH 6.4; type: physicochemical
[17] = Oral bioavailability in dog at 3 mg/kg administered using hydroxypropyl methylcellulose as vehicle; type: ADME, organism-based, Canis lupus familiaris; conditions: in vivo
[18] = target: Cyclin-dependent kinase 7 (Homo sapiens, UniProt P50613); test: Binding affinity to T7-phage-tagged CDK7 by PCR analysis
[19] = target: Inhibitor of nuclear factor kappa-B kinase subunit beta (Homo sapiens, UniProt O14920); test: Binding affinity to T7-phage-tagged IKKbeta by PCR analysis
Sequence of Inhibitor of nuclear factor kappa-B kinase subunit beta (O14920 whole entry): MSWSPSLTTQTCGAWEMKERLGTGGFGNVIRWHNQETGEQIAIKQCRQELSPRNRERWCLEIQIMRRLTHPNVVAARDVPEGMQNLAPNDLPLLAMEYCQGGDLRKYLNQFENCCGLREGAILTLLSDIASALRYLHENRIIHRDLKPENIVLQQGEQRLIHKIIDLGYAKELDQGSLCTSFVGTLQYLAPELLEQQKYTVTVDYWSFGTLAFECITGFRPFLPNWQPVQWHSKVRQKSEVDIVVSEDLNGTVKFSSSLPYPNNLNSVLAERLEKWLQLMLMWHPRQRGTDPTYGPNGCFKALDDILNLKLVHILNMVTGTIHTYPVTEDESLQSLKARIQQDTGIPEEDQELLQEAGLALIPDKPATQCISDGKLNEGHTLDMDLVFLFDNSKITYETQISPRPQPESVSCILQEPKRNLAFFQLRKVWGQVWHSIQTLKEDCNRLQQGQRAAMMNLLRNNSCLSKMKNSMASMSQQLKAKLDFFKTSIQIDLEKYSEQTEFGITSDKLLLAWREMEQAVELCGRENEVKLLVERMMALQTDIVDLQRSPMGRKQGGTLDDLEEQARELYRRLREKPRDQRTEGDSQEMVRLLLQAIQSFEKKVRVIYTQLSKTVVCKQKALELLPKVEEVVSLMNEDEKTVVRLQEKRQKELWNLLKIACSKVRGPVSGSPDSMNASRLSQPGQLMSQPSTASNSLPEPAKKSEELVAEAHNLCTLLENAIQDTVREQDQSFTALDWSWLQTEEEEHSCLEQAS

[20] = Half life in rat at 3 mg/kg, iv; type: ADME, organism-based; parameters: dose 3 mg/kg, route intravenous; conditions: in vivo
[21] = target: Ribosomal protein S6 kinase alpha-1 (Homo sapiens, UniProt Q15418); test: Binding affinity to T7-phage-tagged RPS6KA1 by PCR analysis
Sequence of Ribosomal protein S6 kinase alpha-1 (Q15418 whole entry, looked up): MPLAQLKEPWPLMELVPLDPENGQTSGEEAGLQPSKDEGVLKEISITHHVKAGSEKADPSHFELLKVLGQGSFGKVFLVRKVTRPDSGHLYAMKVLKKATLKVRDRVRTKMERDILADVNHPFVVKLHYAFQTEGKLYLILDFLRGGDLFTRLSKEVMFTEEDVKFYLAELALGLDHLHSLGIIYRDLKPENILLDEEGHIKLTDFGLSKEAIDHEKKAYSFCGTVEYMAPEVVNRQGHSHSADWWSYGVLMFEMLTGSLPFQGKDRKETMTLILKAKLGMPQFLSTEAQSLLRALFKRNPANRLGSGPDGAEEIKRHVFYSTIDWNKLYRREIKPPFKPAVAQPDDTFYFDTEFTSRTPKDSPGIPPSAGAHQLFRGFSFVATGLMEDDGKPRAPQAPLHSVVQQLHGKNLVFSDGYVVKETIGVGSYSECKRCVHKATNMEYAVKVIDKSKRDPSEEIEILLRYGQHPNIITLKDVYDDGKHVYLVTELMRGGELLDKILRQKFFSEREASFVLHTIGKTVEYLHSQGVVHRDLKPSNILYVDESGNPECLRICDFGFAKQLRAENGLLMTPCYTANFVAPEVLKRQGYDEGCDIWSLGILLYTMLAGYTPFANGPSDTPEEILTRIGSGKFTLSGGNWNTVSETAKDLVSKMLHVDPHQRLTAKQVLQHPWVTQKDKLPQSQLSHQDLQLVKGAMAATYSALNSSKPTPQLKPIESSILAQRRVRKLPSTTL

[22] = […] bioavailability in ip dosed rat; type: ADME, organism-based; conditions: in vivo, intraperitoneal
Rattus norvegicus [23] = test: Antiasthatic activity in ovalbumin-sensitized Brown Norway rat assessed as inhibition of ovalbumin-induced neutrophil infiltration into BAL at 10 mg/kg, sc administered 24 hrs prior to ovalbumin-challenge measured after 4 hrs relative to vehicle-treated control; type: functional; conditions: route subcutaneous
Caco-2 = test: Efflux ratio of permeability from apical to basal to basal to apical side of human Caco2 cells; type: ADME, cell-based
[24] = target: Serine/threonine-protein kinase RIO2 (Homo sapiens, UniProt Q9BVS4); test: Binding affinity to T7-phage-tagged RIOK2 by PCR analysis
[25] = target: Serine/threonine-protein kinase 17A (Homo sapiens, UniProt Q9UEE5); test: Binding affinity to T7-phage-tagged STK17A by PCR analysis
Sequence of Serine/threonine-protein kinase 17A (Q9UEE5 whole entry): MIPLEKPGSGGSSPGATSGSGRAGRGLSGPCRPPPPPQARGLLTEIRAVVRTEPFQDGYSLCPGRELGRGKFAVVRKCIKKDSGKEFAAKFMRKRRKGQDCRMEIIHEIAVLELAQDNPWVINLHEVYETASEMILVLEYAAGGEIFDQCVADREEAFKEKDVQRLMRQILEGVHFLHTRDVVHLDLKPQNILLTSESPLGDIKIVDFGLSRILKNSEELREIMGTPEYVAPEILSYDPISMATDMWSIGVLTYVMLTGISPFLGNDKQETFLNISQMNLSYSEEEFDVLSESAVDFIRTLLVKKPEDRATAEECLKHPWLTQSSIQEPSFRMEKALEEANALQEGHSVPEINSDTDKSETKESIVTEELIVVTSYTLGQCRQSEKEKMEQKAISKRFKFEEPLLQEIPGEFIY

[26] = target: T1, Mitogen-activated protein kinase 8; test: Inhibition of human JNK1 alpha1 using GST-tagged ATF2 as substrate and [gamma33P]ATP incubated for 10 mins prior to substrate addition measured after 30 mins by scintillation counting
[27] = target: Death-associated protein kinase 3 (Homo sapiens, UniProt O43293); test: Binding affinity to T7-phage-tagged DAPK3 by PCR analysis
Sequence of Death-associated protein kinase 3 (O43293 whole entry): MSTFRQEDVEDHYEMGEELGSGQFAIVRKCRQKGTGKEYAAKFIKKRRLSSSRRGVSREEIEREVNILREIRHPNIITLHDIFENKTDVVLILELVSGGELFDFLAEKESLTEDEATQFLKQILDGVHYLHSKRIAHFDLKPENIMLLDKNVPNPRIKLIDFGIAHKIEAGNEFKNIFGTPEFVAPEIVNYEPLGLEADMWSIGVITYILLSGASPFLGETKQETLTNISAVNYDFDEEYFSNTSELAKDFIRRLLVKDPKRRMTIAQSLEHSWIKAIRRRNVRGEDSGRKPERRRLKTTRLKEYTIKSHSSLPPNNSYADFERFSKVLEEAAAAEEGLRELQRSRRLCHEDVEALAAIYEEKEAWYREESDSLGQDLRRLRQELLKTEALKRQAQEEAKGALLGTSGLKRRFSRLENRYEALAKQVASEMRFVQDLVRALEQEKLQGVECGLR

[28] = target: Death-associated protein kinase 1 (Homo sapiens, UniProt P53355); test: Binding affinity to T7-phage-tagged DAPK1 by PCR analysis
[29] = target: Dual specificity mitogen-activated protein kinase kinase 4 (Homo sapiens, UniProt P45985); test: Binding affinity to T7-phage-tagged MAP2K4 by PCR analysis
[30] = target: Mitogen-activated protein kinase 15 (Homo sapiens, UniProt Q8TD08); test: Binding affinity to T7-phage-tagged MAPK15 by PCR analysis
Sequence of Mitogen-activated protein kinase 15 (Q8TD08 whole entry): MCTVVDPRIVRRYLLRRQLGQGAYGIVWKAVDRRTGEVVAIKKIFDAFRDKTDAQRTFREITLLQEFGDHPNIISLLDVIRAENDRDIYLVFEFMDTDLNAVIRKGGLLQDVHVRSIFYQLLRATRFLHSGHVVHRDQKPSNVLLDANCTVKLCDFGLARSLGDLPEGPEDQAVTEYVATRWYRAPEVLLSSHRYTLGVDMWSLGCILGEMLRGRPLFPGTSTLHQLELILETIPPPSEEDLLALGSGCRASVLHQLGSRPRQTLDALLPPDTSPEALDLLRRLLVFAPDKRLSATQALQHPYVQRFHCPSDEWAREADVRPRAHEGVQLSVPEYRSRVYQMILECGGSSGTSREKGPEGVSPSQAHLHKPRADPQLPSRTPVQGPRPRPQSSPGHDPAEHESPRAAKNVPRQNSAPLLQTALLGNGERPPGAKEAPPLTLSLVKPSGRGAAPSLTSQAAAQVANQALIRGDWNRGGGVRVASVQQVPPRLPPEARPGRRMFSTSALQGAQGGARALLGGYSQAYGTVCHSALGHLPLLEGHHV

[31] = target: T2, Mitogen-activated protein kinase 9; test: Inhibition of human JNK2 alpha2 using GST-tagged ATF2 as substrate and [gamma33P]ATP incubated for 10 mins prior to substrate addition measured after 30 mins by scintillation counting
[32] = target: c-Jun N-terminal kinase, JNK (Homo sapiens, UniProt P45983+P53779+P45984); test: Inhibition of JNK in human SW1353 assessed as inhibition of TNFalpha-inuced c-Jun phosphorylation incubated for 30 mins prior to TNFalpha-induction measured after 20 mins by immunostaining method

- clearance [1]: 3.4 mL/min/kg
- Kd [2]: > 10000 nM
- Kd [4]: > 10000 nM
- clearance [5]: 25 mL/min/kg
- Kd [6]: > 10000 nM
- bioavailability [7]: 43%
- Kd [8]: > 10000 nM
- Kd [9]: > 10000 nM
- bioavailability [11]: 6%
- Kd [12]: 62 nM
- Kd [13]: 170 nM
- Kd [14]: > 10000 nM
- half-life [15]: 2.5 h
- solubility [16]: 8.5 µg/mL (≈ 17.3 µM)
- bioavailability [17]: 40%
- Kd [18]: > 10000 nM
- Kd [19]: > 10000 nM
- half-life [20]: 1 h
- Kd [21]: > 10000 nM
- bioavailability [22]: 100%
- Ratio (Caco-2): 7
- Kd [24]: > 10000 nM
- Kd [25]: > 10000 nM
- IC50 [26]: 62 nM
- Kd [29]: > 10000 nM
- IC50 [31]: 170 nM
- IC50 [32]: 3000 nM
SMILES: COC(=O)c1c(Cc2ccc(C(=O)NCCO)cc2)c(=O)c2ccc(Cl)cc2n1-c1ccccc1
- inhibition in vivo at 10 mg/kg (Rattus norvegicus [3]): 40%
- Kd [10]: > 10000 nM
- inhibition in vivo at 10 mg/kg (Rattus norvegicus [23]): 55%
- Kd [27]: > 10000 nM
- Kd [28]: > 10000 nM
- Kd [30]: > 10000 nM

- IC50 [26]: 82 nM
- IC50 [31]: 220 nM
- IC50 [32]: 2700 nM
SMILES: COC(=O)c1c(Cc2ccc(S(C)(=O)=O)cc2)c(=O)c2ccc(C(F)(F)F)nc2n1-c1ccccc1

- IC50 [26]: 80 nM
- IC50 [31]: 176 nM
- IC50 [32]: 4300 nM
SMILES: COC(=O)c1c(Cc2ccc(C(=O)NCCO)cc2)c(=O)c2ccc(C(F)(F)F)nc2n1-c1ccccc1

- IC50 [26]: 65 nM
- IC50 [31]: 507 nM
SMILES: COC(=O)c1c(CN2CCN(S(C)(=O)=O)CC2)c(=O)c2ccc(F)cc2n1-c1ccccc1

- solubility [16]: 34 µg/mL (≈ 72 µM)
- Ratio (Caco-2): 2
- IC50 [26]: 23 nM
- IC50 [31]: 140 nM
- IC50 [32]: 830 nM
SMILES: COC(=O)c1c(CN2CCC(S(C)(=O)=O)CC2)c(=O)c2ccc(F)cc2n1-c1ccccc1

- IC50 [26]: 114 nM
- IC50 [31]: 900 nM
SMILES: COC(=O)c1c(CN2CCOCC2)c(=O)c2ccc(F)cc2n1-c1ccccc1

- IC50 [26]: 130 nM
- IC50 [31]: 1310 nM
SMILES: COC(=O)c1c(CN2CC[C@@H](S(C)(=O)=O)C2)c(=O)c2ccc(F)cc2n1-c1ccccc1

- IC50 [26]: 53 nM
- IC50 [31]: 535 nM
SMILES: COC(=O)c1c(CN2CC[C@H](S(C)(=O)=O)C2)c(=O)c2ccc(F)cc2n1-c1ccccc1

- IC50 [31]: 190 nM
- IC50 [32]: 430 nM
SMILES: COC(=O)c1c(CN2CCC(S(C)(=O)=O)CC2)c(=O)c2ccc(C)nc2n1-c1ccccc1

- IC50 [31]: 290 nM
- IC50 [32]: 4300 nM
SMILES: COC(=O)c1c(CN2CCC(S(C)(=O)=O)CC2)c(=O)c2ccc(C(F)(F)F)nc2n1-c1ccccc1

- IC50 [26]: 11000 nM
- IC50 [31]: > 20000 nM
SMILES: CCn1c(=O)c2ccccc2n(-c2ccccc2)c1=O

- IC50 [26]: 2800 nM
- IC50 [31]: 9300 nM
SMILES: O=c1c2ccccc2n(-c2ccccc2)c(=O)n1Cc1ccccc1

- IC50 [26]: 2300 nM
- IC50 [31]: 3800 nM
SMILES: O=c1c2ccc(Cl)cc2n(-c2ccccc2)c(=O)n1Cc1ccccc1

- IC50 [26]: 370 nM
- IC50 [31]: 960 nM
SMILES: COC(=O)c1c(Cc2ccccc2)c(=O)c2ccc(Cl)cc2n1-c1ccccc1

- IC50 [26]: 47 nM
SMILES: CNS(=O)(=O)c1ccc(Cc2c(C(=O)OC)n(-c3ccccc3)c3cc(Cl)ccc3c2=O)cc1

- IC50 [26]: 38 nM
- IC50 [31]: 94 nM
SMILES: CCNC(=O)c1ccc(Cc2c(C(=O)OC)n(-c3ccccc3)c3cc(Cl)ccc3c2=O)cc1

- solubility [16]: 23 µg/mL (≈ 41.7 µM)
- Ratio (Caco-2): 2
- IC50 [26]: 30 nM
- IC50 [31]: 50 nM
- IC50 [32]: 1000 nM
SMILES: COC(=O)c1c(Cc2ccc(S(=O)(=O)N3CCNCC3)cc2)c(=O)c2ccc(Cl)cc2n1-c1ccccc1

- solubility [16]: 37 µg/mL (≈ 69.1 µM)
- IC50 [26]: 30 nM
- IC50 [31]: 70 nM
- IC50 [32]: 1700 nM
SMILES: COC(=O)c1c(Cc2ccc(S(=O)(=O)N3CCNCC3)cc2)c(=O)c2ccc(F)cc2n1-c1ccccc1

- IC50 [26]: 58 nM
- IC50 [31]: 219 nM
- IC50 [32]: 2500 nM
SMILES: COC(=O)c1c(Cc2ccc(S(=O)(=O)CCO)cc2)c(=O)c2ccc(F)cc2n1-c1ccccc1

- solubility [16]: 78 µg/mL (≈ 165 µM)
- Ratio (Caco-2): 15
- IC50 [26]: 30 nM
- IC50 [31]: 64 nM
- IC50 [32]: 4200 nM
SMILES: COC(=O)c1c(Cc2ccc(C(=O)NCCO)cc2)c(=O)c2ccc(C)nc2n1-c1ccccc1

- IC50 [26]: 18 nM
- IC50 [31]: 28 nM
- IC50 [32]: 560 nM
SMILES: COC(=O)c1c(Cc2ccc(S(=O)(=O)N3CCNCC3)cc2)c(=O)c2ccc(C)nc2n1-c1ccccc1

- IC50 [26]: 45 nM
- IC50 [31]: 87 nM
- IC50 [32]: 4700 nM
SMILES: CCNC(=O)c1ccc(Cc2c(C(=O)OC)n(-c3ccccc3)c3nc(C)ccc3c2=O)cc1

- IC50 [26]: 14 nM
- IC50 [31]: 32 nM
- IC50 [32]: 860 nM
SMILES: COC(=O)c1c(Cc2ccc(S(C)(=O)=O)cc2)c(=O)c2ccc(C)nc2n1-c1cccc(N)c1
